Results published in PMC10026764, “Overcoming the imatinib-resistant BCR-ABL mutants with new ureidobenzothiazole chemotypes endowed with potent and broad-spectrum anticancer activity” (Journal of Enzyme Inhibition and Medicinal Chemistry, 2023).

Assays:
ABL^E255K = ABL^E255K (Homo sapiens, UniProt P00519, E255K); test: In vitro enzymatic activity, imatinib-resistant mutant panel
ABL^H396P = ABL^H396P (Homo sapiens, UniProt P00519, H396P); test: as above; type: biochemical
OVCAR-3 = test system: OVCAR-3; set-up: method as in earlier work; conditions: imatinib mesylate NSC 743414, NCI data; cited from earlier work
UACC-257 = test system: UACC-257; set-up: method as in earlier work; conditions: imatinib mesylate NSC 743414, NCI data; cited from earlier work
NCI-H322M = test system: NCI-H322M; set-up: method as in earlier work; conditions: imatinib mesylate NSC 743414, NCI data; cited from earlier work
IGROV1 = test system: IGROV1; set-up: method as in earlier work; conditions: imatinib mesylate NSC 743414, NCI data; cited from earlier work
A498 = test system: A498; set-up: method as in earlier work; conditions: imatinib mesylate NSC 743414, NCI data; cited from earlier work
NCI-H226 = test system: NCI-H226; set-up: method as in earlier work; conditions: imatinib mesylate NSC 743414, NCI data; cited from earlier work
HCT-116 = test system: HCT-116; set-up: method as in earlier work; conditions: imatinib mesylate NSC 743414, NCI data; cited from earlier work

Row | SMILES | IC50 (ABL^E255K) | IC50 (ABL^H396P) | GI50 (OVCAR-3) | GI50 (UACC-257) | GI50 (NCI-H322M) | GI50 (IGROV1) | GI50 (A498) | GI50 (NCI-H226) | GI50 (HCT-116)
1 | CCN1CCN(c2ccc(NC(=O)Nc3nc4ccc(-c5ccccc5OC)cc4s3)cc2)CC1 [Compound 2b] | 0.00247 µM | < 0.001 µM | – | – | – | – | – | – | –
2 | Cc1ccc(NC(=O)c2ccc(CN3CCN(C)CC3)cc2)cc1Nc1nccc(-c2cccnc2)n1 [Imatinib] | – | – | 34.2 µM | 21.1 µM | 22.8 µM | 21.2 µM | 22 µM | 18.1 µM | 12.6 µM
